13 compounds from US7288671B2, “Interleukin-1 and tumor necrosis factor-α modulators, synthesis of said modulators and their enantiomers and methods of using said modulators” (Nereus Pharmaceuticals, Inc., priority 1999, dated 2007) can be followed below.

Series [1] relates to TNF-α synthesis of THP-1 cells. Put plainly: LPS-induced TNF-α production in PMA-differentiated THP-1 cells (FLISA). The series is classed as cell-based, human. Conditions: THP-1, LPS. As to the method:
(§1) The ability to inhibit TNF-α production was analyzed in THP-1 cells, a human acute monocytic leukemia cell line that is widely used to assess monocyte functions. In order to induce maturation, THP-1 cells were plated at 1×10^6 cells/ml and pretreated with 5 nM PMA for two days. Differentiated THP-1 cells were pretreated with various concentrations of NPI-1302a-3 or its analogs for 1 hour, followed by a 4 hour incubation with 1 μg of LPS (Sigma, St. Louse, Mo.). The P38 inhibitor (10 μM, SB 203580; Sigma, St. Louis, Mo.) was used as a positive control. Supernatants were collected and stored at −80° C. until assayed for TNF-α activity. A resazurin assay was performed for each analog to evaluate the effects on cell metabolism and viability.
To detect the presence of human TNFα, fluorescent linked immunosorbent assay or FLISA was developed and optimized. 100 μl of beads (6 μm, Spherotech) coated with goat anit-mouse IgG (1 mg/ml, R and D Systems) were mixed with 4 μl of biotin-anti-hTNFα mouse IgG (0.1 mg/ml, R and D Systems) and 2 μl of FMAT Blue-streptavidin (0.1 mg/ml, Applied Biosystems). 50 μl of the mixtures was combined with 50 μl of the supernatant isolated from treated THP-1 cells and added to the black wall FLISA plates (Applied Biosystems) and incubated overnight. The plates were scanned at factory set PMT setting, and the values were plotted and analyzed by Applied Biosystems software.

Series [2] has as its system THP-1 cells. Put plainly: Resazurin (alamarBlue) cell viability assay in differentiated THP-1 cells. The series is classed as cell-based, human. As to conditions: footnote marks: * mild, ** marked reduction in viability, in % (unit assumed). As to the method: as §1
A preparation of the dye resazurin, commercially-available as alamarBlue™ (Biosource International Inc.; 820 Flynn Road, Camarillo, Calif.), was used for the cytotoxicity assays described herein. The assays and experiments described herein were conducted in substantially the same manner as described in the scientific literature, for example, in Magnani, E and Bettini, E., “Resazurin detection of energy metabolism changes in serum-starved PC12 cells and of neuroprotective agent effect,” Brain Res Protoc., Jul. 5, 2000(3):266-72 and in Nociari M. M., Shalev A., Benias P., and Russo C. J, “A novel one-step, highly sensitive fluorometric assay to evaluate cell-mediated cytotoxicity,” Immunol.Methods 213, 157-167 (1998), see also U.S. Pat. No. 5,501,959, entitled “Antibiotic and Cytotoxic Drug Susceptibility Assays using Resazurin and Poising Agents,” the entire specification of which is incorporated herein by reference.
(Resazurin is reduced to fluorescent resorufin, in cell work by metabolically active cells.)

Series [3] deals with IL-6 synthesis. As to the kind of experiment: SAC-induced IL-6 synthesis, RAW 264.7 macrophage cells. The series is classed as cell-based, Murine. The method, then:
(§2) Murine macrophage cells RAW 264.7 (1×10^6/ml) were pretreated for 30-60 minutes with varying doses of the synthetic compound of Formula (I), the synthetic compound of formula (I) and a panel of analogs (diluted in 0.5% DMSO) prior to stimulation with various agents such as lipopolysaccharide (LPS) or a gram positive agent like heat-killed Staph aureus (SAC). Supernatants collected over a 72-hour period will be assayed for the levels of TNF-α, IL-1, IL-6, IL-10, IL-12 and other cytokines either by elisa or bioassay. Additional studies to evaluate the effects of the synthetic compound of Formulae (I), (II), (IIA) and (IIB) on cytokine signaling pathways such as, for example, Caspase-activity (Nr-1, Nr.3), transcription factors such as NF-kB, MAP-kinase activity (p38, ERK and JNK) will also be performed.

Series [4] concerns TNF-α synthesis. As to the kind of experiment: Inhibition of LPS-induced TNF-α synthesis, RAW 264.7 macrophage cells. Format: cell-based, Murine. Conditions: for TNF-α: Table 7, LPS alone 88. As to the method: as §2
Series [5] relates to LPS/D-Gal administration. Put plainly: Mortality after LPS/D-Gal administration. As to conditions: i.p., TTL3 45 minutes prior to LPS. The series is classed as in vivo.
Series [6] deals with IL-1 synthesis. Put plainly: Inhibition of SAC-induced IL-1 synthesis, RAW 264.7 macrophage cells. As to conditions: for IL-1α: Table 6, SAC-induced, SAC alone 650, unstimulated 0. Format: cell-based, Murine. As to the method:
as §2

Series [7] concerns TNF-α synthesis. As to the kind of experiment: Inhibition of SAC-induced TNF-α synthesis, RAW 264.7 macrophage cells. Format: cell-based, Murine. As to conditions: SAC alone 375, unstimulated 5. The method, then: as §2

Consider `C=CC1(C)CCC=C2C1CCC1C(C)(CNCCN)CCCC21C` (racemic) [CC-3-13 ra], for which the “Percent TNF-α Inhibition” value in series [1] (100 ng/ml) worked out at 10%; in series [1] (1 ug/ml), 50%; in series [1] (10 ug/ml), 95%. Also, the entries for the “Cell Viability” value in series [2] (100 ng/ml), in series [2] (1 ug/ml) and in series [2] (10 ug/ml) were 95*, 75** and 20**, respectively.

Consider `C=CC1(C)CCC=C2C1CCC1C(C)(CCNCCN)CCCC21C` (racemic) [CC-3-15 ra], for which the “Percent TNF-α Inhibition” value in series [1] (1 ug/ml) came out at 25%; in series [1] (10 ug/ml), 65%. Besides, the “Cell Viability” value in series [2] (1 ug/ml) and in series [2] (10 ug/ml) was 100 in each case.

Take `C=CC1(C)CCC=C2C1CCC1C(C)(C=O)CCCC21C` (stereo not drawn) [CC-3-09]: the figures for the “Percent TNF-α Inhibition” value in series [1] (100 ng/ml), in series [1] (1 ug/ml) and in series [1] (10 ug/ml) were 0%, 0% and 10%, respectively. The “Cell Viability” value in series [2] (100 ng/ml), in series [2] (1 ug/ml) and in series [2] (10 ug/ml) was 100 in each case.

As to `C=CC1(C)CCC=C2C1CCC1C(C)(CC=O)CCCC21C` (stereo not drawn) [CC-3-14], the results for the “Percent TNF-α Inhibition” value in series [1] (100 ng/ml) and in series [1] (1 ug/ml) were 25% and 30%, respectively. Moreover, the “Cell Viability” value in series [2] (100 ng/ml) and in series [2] (1 ug/ml) was 100 each time.

Turning to `C=CC1(C)CCC=C2C1CCC1C(C)(COC(=O)CCC(=O)O)CCCC21C` (stereo not drawn) [CC-3-17], the figures for the “Percent TNF-α Inhibition” value in series [1] (100 ng/ml), in series [1] (1 ug/ml) and in series [1] (10 ug/ml) were 10%, 20% and 25%, respectively. Moreover, the “Cell Viability” value is 90* in series [2] (100 ng/ml), 85* in series [2] (1 ug/ml) and 75** in series [2] (10 ug/ml).

`C=CC1(C)CCC=C2C1CCC1C(C)(COC(C)=O)CCCC21C` (stereo not drawn) [LT-1-46]: the “Percent TNF-α Inhibition” value in series [1] (100 ng/ml) turned out to be 0%; in series [1] (1 ug/ml) it was 0%; in series [1] (10 ug/ml) it was 20%. Further, the “Cell Viability” value in series [2] (100 ng/ml) was 100; in series [2] (1 ug/ml) it was 90*; in series [2] (10 ug/ml) it was 90*.

Take `C=CC1(C)CCC=C2C1CCC1C(C)(C(=O)NCCN)CCCC21C` (stereo not drawn) [LT-1-74]: the “Percent TNF-α Inhibition” value in series [1] (100 ng/ml) is given as 25%; in series [1] (1 ug/ml), 30%. Further, the “Cell Viability” value in series [2] (100 ng/ml) and in series [2] (1 ug/ml) was 100 each time.

For `C=CC1(C)CCC=C2C1CCC1C(C)(C(=O)N(CCO)CCO)CCCC21C` (stereo not drawn) [LT-1-78], the “Percent TNF-α Inhibition” value in series [1] (100 ng/ml) amounted to 0%; in series [1] (1 ug/ml) it was 0%; in series [1] (10 ug/ml) it was 20%. The “Cell Viability” value in series [2] (100 ng/ml), in series [2] (1 ug/ml) and in series [2] (10 ug/ml) was 100 each time.

In the case of `C=CC1(C)CCC=C2C1CCC1C(C)(C(=O)N3CCOCC3)CCCC21C` (stereo not drawn) [LT-1-85], the “Percent TNF-α Inhibition” value is recorded as 10% in series [1] (100 ng/ml), 45% in series [1] (1 ug/ml) and 55% in series [1] (10 ug/ml). Also, the “Cell Viability” value in series [2] (100 ng/ml) is recorded as 100; in series [2] (1 ug/ml), 100; in series [2] (10 ug/ml), 80*.

As a reminder, the inhibition is the relative decrease from the control value, in per cent. Take `C=C[C@@]1(C)CCC=C2[C@H]1CC[C@@H]1[C@](C)(C(=O)O)CCC[C@@]21C` [TTL1]: in series [1] (Homo sapiens, 100 ng/ml, read-out: Percent TNF-α Inhibition), the inhibition at 0.1 µg/mL stood at 10%. Also, in series [1] (Homo sapiens, 1 ug/ml, read-out: Percent TNF-α Inhibition), the inhibition at 1 µg/mL came out at 30%. Further, the inhibition at 10 µg/mL in series [1] (Homo sapiens, 10 ug/ml, read-out: Percent TNF-α Inhibition) worked out at 50%. Also, in series [3], the “inhibition of IL-6 synthesis” value is on record as “neither analog TTL1 nor TTL3 significantly inhibited IL-6 synthesis”. Besides, the “Cell Viability” value in series [2] (100 ng/ml) and in series [2] (1 ug/ml) was 100 in each case.

Take `C=CC1(C)CCC=C2C1CCC1C(C)(C(=O)OC)CCCC21C` (stereo not drawn) [TTL3]: the “Percent TNF-α Inhibition” value amounted to 30% in series [1] (100 ng/ml), 55% in series [1] (1 ug/ml) and 70% in series [1] (10 ug/ml). Also, in series [3], the “inhibition of IL-6 synthesis” value is reported as “neither analog TTL1 nor TTL3 significantly inhibited IL-6 synthesis”. Further, the TNF-α in series [4] (LPS (1 μg/ml) + TTL3 1.0 μg/ml) amounted to 13 ng/mL; in series [4] (LPS (1 μg/ml) + TTL3 1 × 10^2 μg/ml), 4 ng/mL; in series [4] (LPS (1 μg/ml) + TTL3 1 × 10^−4 μg/ml) it was 15 ng/mL; in series [4] (LPS (1 μg/ml) + TTL3 1 × 10^−5 μg/ml) it was 10 ng/mL; in series [4] (LPS (1 μg/ml) + TTL3 1 × 10^−6 μg/ml) it was 18 ng/mL; in series [4] (LPS (1 μg/ml) + TTL3 1 × 10^−7 μg/ml), 41 ng/mL. Further, the TNF-α in series [7] (Table 5, TTL3 0.001 μg/ml) came out at 80 ng/mL; in series [7] (Table 5, TTL3 0.01 μg/ml), 75 ng/mL; in series [7] (Table 5, TTL3 0.1 μg/ml), 85 ng/mL; in series [7] (Table 5, TTL3 1 μg/ml), 60 ng/mL; in series [7] (Table 5, TTL3 10 μg/ml) it was 80 ng/mL. The “times greater activity than TTL1 (inhibiting TNF-α synthesis)” value in series [4] (stimulus not given) was “approximately 100 times”. The “Mortality 24 hours” value in series [5] (LPS/D-Gal alone 10/10, + DMSO 8/10) is listed as 2/10. For the same compound, in series [5] (LPS/D-Gal alone 10/10, + DMSO 9/10), the “Mortality 48 hours” value is recorded as 2/10. The IL-1α in series [6] (TTL3 0.001 μg/ml) amounted to 200 pg/mL; in series [6] (TTL3 0.01 μg/ml), 220 pg/mL; in series [6] (TTL3 0.1 μg/ml), 190 pg/mL; in series [6] (TTL3 1 μg/ml), 180 pg/mL; in series [6] (TTL3 10 μg/ml), 170 pg/mL. For the same compound, the “times greater activity than TTL1 (inhibiting IL-1 synthesis)” value in series [6] (stimulus not given) is “approximately 100 times”. In addition, the “Cell Viability” value in series [2] (100 ng/ml), in series [2] (1 ug/ml) and in series [2] (10 ug/ml) was 100 throughout.

For the compound `C=CC1(C)CCC=C2C1CCC1C(C)(C(=O)[O-])CCCC21C.[K+]` (stereo not drawn) [TTL-1K], the “Percent TNF-α Inhibition” value in series [1] (100 ng/ml) came out at 10%; in series [1] (1 ug/ml), 50%.

With `C=CC1(C)CCC=C2C1CCC1C(C)(C(=O)[O-])CCCC21C.[Na+]` (stereo not drawn) [TTL-1Na], the results for the “Percent TNF-α Inhibition” value in series [1] (1 ug/ml) and in series [1] (10 ug/ml) were 40% and 50%, respectively. In addition, the entries for the “Cell Viability” value in series [2] (1 ug/ml) and in series [2] (10 ug/ml) were 90* and 80*, respectively.
